# According to patent US20150018384A1, “TREATMENT FOR HIGH CHOLESTEROL” (FibroGen, Inc., priority 2012, published 2015):
# Entries after “also recorded” stand apart in the source; their conditions may differ. Marks after values point to notes of the source that are not given here.
# Tests used:
# DIO mice = assay: High cholesterol mouse model, diet induced obesity (DIO) mice; conditions: another study, 60 mg/kg three times a week for two weeks, n=10/group, FIG. 24
# Description: Ten-week-old male apoE knockout mice (Jackson Laboratories, Bar Harbor, Me.) were fed a normal chow diet (0.02% cholesterol, 13.5% fat by weight; LabDiet). Ten-week-old male diet induced obese mice (DIO Mice, Jackson Laboratories, Bar Harbor, Me.) were fed a high fat diet (0.095% cholesterol, 60% fat by weight; ResearchDiets) starting at six-weeks-old. After 2 weeks of acclimatization, whole blood was collected for baseline measurement before administration of test reagents. All test reagents were administered orally by gavage needle three times a week for 2 weeks for the apoE mice, and three times a week for 4 weeks for the DIO mice. The animals were sacrificed at end of study. Whole blood was collected weekly in Heparin-tube by submandibular bleeding and isolated plasma was stored at −80° C. for measurement of total cholesterol.
# DIO mice as described in Example 10 were used to test the effect of various compounds on cholesterol levels. Compound (60 mg/kg) or vehicle was administered to the mice (n=10/group) three times a week for four weeks. A statin compound (rosuvastatin) was also tested. Blood samples were collected at weekly and total cholesterol blood levels were tested.
# healthy subjects = assay: Circulating total cholesterol and LDL-C in healthy subjects dosed twice per week; format: in vivo, human; conditions: 1.88 mg/Kg orally twice per week, average (SD), n=6
# Experimental: Subjects were fasted overnight prior on subsequent dosing days. Overnight fasting was not required on non-dosing days. The samples had been stored frozen at −70° C. for up to 6 years, and had undergone up to two thaw/freeze cycles prior to testing. Results are presented separately for samples collected during fasting: Day 1 (0, 1, 2 hrs post-dose), Day 2 (24 hrs), Day 3 (72 hrs), Day 7 (168 hrs), Day 10 (240 hrs) and Day 17 (408 hours).
# Samples were analyzed using validated assays on a Roche Modular system. Total cholesterol was measured using the CHOD-PAP reagent from Roche, Cat. No. 11875540216. HDL cholesterol was measured using reagents from Polymedco, Cat. No. 9400 (data not shown). LDL cholesterol was measured using the LDL-C plus 2nd generation reagents from Roche, Cat. No. 04711220190. Triglycerides were measured using GPO-PAP reagent from Roche, Cat. No. 11730711216 (data not shown).
# [1] = test system: subjects with chronic kidney disease (CKD); assay: Phase 2b study in CKD subjects with anemia, Compound A vs placebo; format: in vivo, human
# Experimental: The Hb target was 11 g/dL. The primary efficacy endpoint was the maximum change of Hb from baseline by Week 9.
# Subjects were stratified by baseline (BL) total cholesterol (either >200 mg/dL or s 200 mg/dL) and analyzed for mean total cholesterol and LDL-C over the course of treatment.
# [2] = test system: subjects with end stage renal disease (ESRD); assay: ESRD subjects switched from epoetin alfa to Compound A or continued on epoetin alfa; format: in vivo, human; conditions: six weeks
# Experimental: Mean total cholesterol change for the Compound A-treated subjects (all cohorts) was a decrease of 15 mg/dL compared to an increase of 18 mg/dL for the epoetin alfa treated subjects.
# PHD3 = PHD3 (Homo sapiens, UniProt Q9H6Z9); assay: HIF prolyl hydroxylase enzyme assay, PHD3; format: biochemical
# Description: (§1) Suitable assay methods are well known in the art.
# ApoE deficient mice = assay: Cholesterol reduction and erythrogenesis in ApoE deficient mice, 4 weeks; format: in vivo, mouse; conditions: orally 2, 20, 60 or 100 mg/kg three times a week for 4 weeks, n=8/group
# Experimental: Ten-week-old male apoE knockout mice (Jackson Laboratories, Bar Harbor, Me.) were fed a normal chow diet (0.02% cholesterol, 13.5% fat by weight; LabDiet). […] After 2 weeks of acclimatization, whole blood was collected for baseline measurement before administration of test reagents. […] The animals were sacrificed at end of study.
# Total cholesterol and hemoglobin were measured weekly.
# [3] = test system: non-dialysis chronic kidney disease (CKD) patients with anemia; assay: Study 1: Phase 2 study of compound A in non-dialysis CKD patients with anemia; format: in vivo, human
# Experimental: The primary objectives of this study were to evaluate the efficacy and safety of the compound in the correction of anemia (i.e. increasing hemoglobin levels) in non-dialysis CKD patients. The study included six dosing cohorts of approximately 24 subjects each. […] Cohort A and cohort B both received a weight-adjusted dose of approximately 1 mg/kg, three times a week for 16 weeks; the dosing in cohort B was reduced to twice a week once anemia was corrected. Cohort C and cohort D received a fixed dose of 50 mg or 100 mg, respectively, three times a week, for 24 weeks. Cohort E received a weight-adjusted dose of approximately 1 mg/kg twice a week, reduced to once a week once anemia was corrected. Cohort F received a fixed dose of 70 mg, three times a week.
# Total cholesterol and lipid panels were measured by standard procedures.
# Total cholesterol was measured from all subjects in Study 1 or Study 2 as part of the chemistry panel at prespecified time points. […] Total cholesterol decreased initially with treatment, reached a plateau where it remained during treatment, and then returned to baseline after treatment ends.
# Frozen serum samples, collected from subjects in Study 1 or Study 2, were selected for the lipid panel analysis based on the following criteria: 1) with matched baseline (D1W1) and; 2) at least one other time point. The complete lipid panel includes: total cholesterol (TC), HDL, LDL-measured, Triglycerides and VLDL (Calculated). Ratio of HDL/LDL or LDL/HDL were analyzed.
# A total of n=9 subjects samples were selected and assayed for the complete lipid panel as described above. Subjects on this study protocol were not required to fast nor have any diet restrictions.
# PHD1 = PHD1 (Homo sapiens, UniProt Q96KS0); assay: HIF prolyl hydroxylase enzyme assay, PHD1; format: biochemical
# Description: as §1
# [4] = orally three times a week for 8 weeks
# [5] = six subjects with identical time points, FIG. 7
# Chain of PHD3 (Q9H6Z9 whole entry): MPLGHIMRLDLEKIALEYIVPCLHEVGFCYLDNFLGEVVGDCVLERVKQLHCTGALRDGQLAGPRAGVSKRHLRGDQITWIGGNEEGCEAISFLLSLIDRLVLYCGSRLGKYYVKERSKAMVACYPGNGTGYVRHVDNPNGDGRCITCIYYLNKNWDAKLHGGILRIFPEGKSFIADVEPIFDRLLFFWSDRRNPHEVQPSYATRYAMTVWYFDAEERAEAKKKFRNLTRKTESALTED
# Chain of PHD1 (Q96KS0 whole entry): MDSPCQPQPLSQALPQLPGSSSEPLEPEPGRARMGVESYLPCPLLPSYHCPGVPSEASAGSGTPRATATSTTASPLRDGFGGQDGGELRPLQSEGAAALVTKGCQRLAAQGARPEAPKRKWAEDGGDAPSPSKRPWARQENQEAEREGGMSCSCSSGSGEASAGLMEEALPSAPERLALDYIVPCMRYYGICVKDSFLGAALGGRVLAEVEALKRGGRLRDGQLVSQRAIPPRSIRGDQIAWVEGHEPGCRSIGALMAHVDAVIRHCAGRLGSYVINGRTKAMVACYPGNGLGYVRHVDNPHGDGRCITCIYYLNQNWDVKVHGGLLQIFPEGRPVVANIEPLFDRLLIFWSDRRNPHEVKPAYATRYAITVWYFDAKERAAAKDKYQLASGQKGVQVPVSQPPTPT
smiles,measurement,setting,value
"Cc1nc(C(=O)NCC(=O)O)c(O)c2ccc(Oc3ccccc3)cc12 [Compound A, [(4-Hydroxy-1-methyl-7-phenoxy-isoquinoline-3-carbonyl)-amino]-acetic acid]",total cholesterol levels compared to vehicle treated,DIO mice,statistically significant decrease in total cholesterol levels
same,LDL Cholesterol,healthy subjects; 0 hours,95 (36) mg/dL
same,Total Cholesterol,healthy subjects; 0 hours,165 (33) mg/dL
same,LDL Cholesterol,healthy subjects; 1 hours,95 (36) mg/dL
same,Total Cholesterol,healthy subjects; 1 hours,164 (30) mg/dL
same,LDL Cholesterol,healthy subjects; 2 hours,97 (35) mg/dL
same,Total Cholesterol,healthy subjects; 2 hours,167 (32) mg/dL
same,LDL Cholesterol,healthy subjects; 24 hours,96 (36) mg/dL
same,Total Cholesterol,healthy subjects; 24 hours,161 (31) mg/dL
same,LDL Cholesterol,healthy subjects; 72 hours,92 (27) mg/dL
same,Total Cholesterol,healthy subjects; 72 hours,154 (26) mg/dL
same,LDL Cholesterol,healthy subjects; 168 hours,77 (31) mg/dL
same,Total Cholesterol,healthy subjects; 168 hours,144 (24) mg/dL
same,LDL Cholesterol,healthy subjects; 240 hours,78 (29) mg/dL
same,Total Cholesterol,healthy subjects; 240 hours,144 (23) mg/dL
same,LDL Cholesterol,healthy subjects; 408 hours,86 (29) mg/dL
same,Total Cholesterol,healthy subjects; 408 hours,152 (22) mg/dL
same,Mean BL LDL-C,[1]; baseline (pre-treatment),102.60 mg/dL
same,Mean BL Total Cholesterol,[1]; baseline (pre-treatment),166.84 mg/dL
same,Cholesterol total % change,[1]; [4],−18.5%
same,Cholesterol total change,[1]; [4],-33.9 mg/dL
same,HDL-C,[1]; [4],decreased
same,LDL Cholesterol % change,[1]; [4],−23.2%
same,LDL cholesterol change,[1]; [4],-27.9 mg/dL
same,percentage of subjects who achieved Hb response (Hb increase of >1 g/dL from baseline Hb),[1]; [4],86.4%
same,mean total cholesterol over the course of treatment,"[1]; subjects stratified by BL total cholesterol ≦200 (n=48) or >200 mg/dL (n=13), FIG. 14",reduction
same,mean LDL-C over the course of treatment,"[1]; subjects stratified by BL total cholesterol ≦200 (n=48) or >200 mg/dL (n=13), FIG. 15",reduction
same,Total Cholesterol change,"[2]; Mean (±SD), Compound A orally three times a week (n=74) or continued epoetin alfa (n=22)",−15 (38)** mg/dL
same,"Mean total cholesterol change, decrease",[2]; all cohorts,15 mg/dL
same,IC50,PHD3,200 to 2000 nM
same,doses with statistically significant decreases in total cholesterol (% change),ApoE deficient mice,100 mg/kg
same,hemoglobin compared to vehicle-treated,ApoE deficient mice,statistically significant increases in hemoglobin compared to vehicle-treated at the 60 mg/kg and 100 mg/kg doses; also recorded: significant increase in hemoglobin for the 60 mg/kg and 100 mg/kg doses
same,total cholesterol (% change from baseline) compared to vehicle-treated,ApoE deficient mice,lower total cholesterol levels; also recorded: significant percent change in total cholesterol from baseline for the 100 mg/kg dose
same,total cholesterol by baseline total cholesterol ≦200 or >200 mg/dL,"[3]; Study 1, FIG. 5",total cholesterol is reduced in each group
same,total cholesterol over time,"[3]; all subjects from all cohorts (n=144), during study treatment, FIG. 1",significant decrease in total cholesterol
same,"LDL, lipid panel",[3]; [5],reduce over the course of treatment
same,"total cholesterol, lipid panel",[3]; [5],reduce over the course of treatment
same,IC50,PHD1,200 to 2000 nM
